Assays:
Assay type in all cases: in vivo
[1] = system: Avena fatua (AVEFA); assay: Example B post-emergence herbicidal activity, glasshouse pot test; settings: 312 h, rate 250 g/ha, evaluated after 13 days, scale 0-100, read-out: Post-emergence activity AVEFA (100=total damage to plant; 0=no damage to plant)
Description: (§1) Seeds of a variety of test species were sown in standard soil in pots. After cultivation for one day (pre-emergence) or after 8 days cultivation (post-emergence) under controlled conditions in a glasshouse (at 24/16° C., day/night; 14 hours light; 65% humidity), the plants were sprayed with an aqueous spray solution derived from the formulation of the technical active ingredient of formula I in acetone/water (50:50) solution containing 0.5% Tween 20 (polyoxyethelyene sorbitan monolaurate, CAS RN 9005-64-5). The test plants were then grown in a glasshouse under controlled conditions in a glasshouse (at 24/16° C., day/night; 14 hours light; 65% humidity) and watered twice daily. After 13 days for pre and post-emergence, the test was evaluated (100=total damage to plant; 0=no damage to plant). Setaria faberi (SETFA), Lolium perenne (LOLPE), Alopecurus myosuroides (ALOMY), Echinochloa crus-galli (ECHCG), and Avena fatua (AVEFA). Post-Emergence Activity

[2] = system: Alopecurus myosuroides (ALOMY); assay: as above; settings: 312 h, rate 250 g/ha, evaluated after 13 days, scale 0-100, read-out: Post-emergence activity ALOMY (100=total damage to plant; 0=no damage to plant)
Description: as §1

[3] = system: Echinochloa crus-galli (ECHCG); assay: as above; settings: 312 h, rate 250 g/ha, evaluated after 13 days, scale 0-100, read-out: Post-emergence activity ECHCG (100=total damage to plant; 0=no damage to plant)
Description: as §1

[4] = system: Lolium perenne (LOLPE); assay: as above; settings: 312 h, rate 250 g/ha, evaluated after 13 days, scale 0-100, read-out: Post-emergence activity LOLPE (100=total damage to plant; 0=no damage to plant)
Description: as §1

[5] = system: Avena fatua (AVEFA); assay: Example B pre-emergence herbicidal activity, glasshouse pot test; settings: 312 h, rate 250 g/ha, evaluated after 13 days, scale 0-100, read-out: Pre-emergence activity AVEFA (100=total damage to plant; 0=no damage to plant)
Description: as §1, with “Pre-Emergence” for “Post-Emergence”

[6] = system: Alopecurus myosuroides (ALOMY); assay: as above; settings: 312 h, rate 250 g/ha, evaluated after 13 days, scale 0-100, read-out: Pre-emergence activity ALOMY (100=total damage to plant; 0=no damage to plant)
Description: as §1, with “Pre-Emergence” for “Post-Emergence”

[7] = system: Echinochloa crus-galli (ECHCG); assay: as above; settings: 312 h, rate 250 g/ha, evaluated after 13 days, scale 0-100, read-out: Pre-emergence activity ECHCG (100=total damage to plant; 0=no damage to plant)
Description: as §1, with “Pre-Emergence” for “Post-Emergence”

[8] = system: Lolium perenne (LOLPE); assay: as above; settings: 312 h, rate 250 g/ha, evaluated after 13 days, scale 0-100, read-out: Pre-emergence activity LOLPE (100=total damage to plant; 0=no damage to plant)
Description: as §1, with “Pre-Emergence” for “Post-Emergence”

SMILES	pest or weed control at 250 g/ha [1] [%]	pest or weed control at 250 g/ha [2] [%]	pest or weed control at 250 g/ha [3] [%]	pest or weed control at 250 g/ha [4] [%]	pest or weed control at 250 g/ha [5] [%]	pest or weed control at 250 g/ha [6] [%]	pest or weed control at 250 g/ha [7] [%]	pest or weed control at 250 g/ha [8] [%]
CCc1ccc(-c2ccc(Cl)nc2Cl)cc1C1=C(O)C(C)(C)CCC1=O [Compound T12]	0	0	90	0	0	0	0	0
CCc1ccc(-c2ccc(Cl)cc2F)cc1C1=C(O)CCCC1=O [Compound T45]	90	40	100	100	20	20	100	100
CCc1ccc(-c2c(F)cc(Cl)cc2Cl)cc1C1=C(O)CCCC1=O [Compound T51]	50	40	90	90	40	20	80	100
CCc1ccc(-c2ccc(Cl)c(C(F)(F)F)c2)cc1C1=C(O)CC(C)(C)CC1=O [Compound T25]	80	80	100	100	20	30	80	70
CCc1ccc(-c2ccc(Cl)c(Cl)c2)cc1C1=C(O)C(C)(C)CCC1=O [Compound T5]	90	70	100	80	0	0	0	0
CCc1ccc(-c2ccc(Cl)c(F)c2F)cc1C1=C(O)CCCC1=O [Compound T52]	80	70	100	100	30	40	100	90
CCc1ccc(-c2ccc(Cl)c(Cl)c2Cl)cc1C1=C(O)CCCC1=O [Compound T54]	0	20	80	60	0	0	70	20
CCc1ccc(-c2cc(Cl)c(Cl)cc2Cl)cc1C1=C(O)C(C)(C)CCC1=O [Compound T20]	40	0	80	70	0	0	90	50
CCc1ccc(-c2ccc(Cl)nc2Cl)cc1C1=C(O)CCCC1=O [Compound T57]	40	50	80	60	0	0	20	10
CCc1ccc(-c2ccc(Cl)cc2)cc1C1=C(O)C(C)(C)CC(C)(C)C1=O [Compound T69]	40	20	100	100	0	10	90	90
CCc1ccc(-c2c(F)cc(Cl)cc2F)cc1C1=C(O)CC(C)(C)CC1=O [Compound T28]	50	30	100	100	40	20	100	90
CCc1ccc(-c2c(F)cc(Cl)cc2F)cc1C1=C(O)C(C)(C)CCC1=O [Compound T13]	0	0	100	50	0	0	40	50
CCc1ccc(-c2cc(Cl)c(Cl)cc2Cl)cc1C1=C(O)CCCC1=O [Compound T46]	20	0	100	70	20	0	90	70
CCc1ccc(-c2ccc(Cl)nc2)cc1C1=C(O)CCCC1=O [Compound T42]	20	50	100	50	0	0	20	0
CCc1ccc(-c2ccc(Cl)c(Cl)c2)cc1C1=C(O)CCCC1=O [Compound T49]	80	50	100	90	60	20	100	100
CCc1ccc(-c2ccc(Cl)c(C(F)(F)F)c2)cc1C1=C(O)CCCC1=O [Compound T41]	50	60	90	100	30	20	100	100
CCc1ccc(-c2ccc(Cl)c(C(F)(F)F)c2F)cc1C1=C(O)CCCC1=O [Compound T53]	80	40	100	100	0	20	40	40
CCc1ccc(-c2ccc(Cl)c(Cl)c2)cc1C1=C(O)C(C)(C)CC(C)(C)C1=O [Compound T67]	20	20	80	40	0	10	60	10
CCc1ccc(-c2c(F)cc(Cl)cc2F)cc1C1=C(O)CCCC1=O [Compound T58]	90	60	100	90	0	20	90	70
